This is an account of results in ChEMBL document CHEMBL3272306, “Synthesis and antimicrobial activity of some novel heterocycles. Azolo-as-triazines” (1976).

≈ marks a conversion by molar mass, not a printed value.

Format in all cases: functional
One experiment deals with Escherichia coli. Kind of experiment: Antibacterial activity against clinical isolate Escherichia coli assessed as prevention of visible growth at 25 degC after 24 hrs by broth dilution assay.
The next experiment has as its system Pseudomonas aeruginosa. Kind of experiment: Antibacterial activity against clinical isolate Pseudomonas aeruginosa assessed as prevention of visible growth at 25 degC after 24 hrs by broth dilution assay.
A further experiment deals with Staphylococcus aureus. Kind of experiment: Antibacterial activity against clinical isolate Staphylococcus aureus assessed as prevention of visible growth at 25 degC after 24 hrs by broth dilution assay. (In general: Broth dilution looks for growth in wells or tubes with falling amounts of substance.)
The test system of a further experiment is Candida albicans. Description: Antifungal activity against clinical isolate Candida albicans assessed as prevention of visible growth at 25 degC after 24 hrs by broth dilution assay.
The test system of experiment [1] is Trichophyton mentagrophytes. Kind of experiment: Antifungal activity against clinical isolate Trichophyton mentagrophytes assessed as prevention of visible growth at 30 degC after 48 hrs by broth dilution assay.

For the molecule `CCOC(=O)c1nnc2ccnn2c1N`, the figures for the MIC with Escherichia coli and in the experiment with Pseudomonas aeruginosa were over 400 µM and 160 µM (≈ 33.2 µg/mL), respectively.
As for `CCCC(=O)c1nnc2c(C(N)=O)nnn2c1CCC`, the MIC in the experiment with Escherichia coli is over 400 µM; in the experiment with Staphylococcus aureus it was 400 µM (≈ 111 µg/mL).
As to `CC(=O)c1nnc2ccnn2c1C`, the MIC (in the experiment on Candida albicans; in experiment [1]; with Escherichia coli; with Staphylococcus aureus; with Pseudomonas aeruginosa) was over 400 µM throughout.
With `CCCC(=O)c1nnc2c(-c3ccc(Cl)cc3)cnn2c1CCC`, the MIC with Escherichia coli was over 400 µM; in the experiment on Pseudomonas aeruginosa, 400 µM (≈ 137 µg/mL).
Take `CCCC(=O)c1nnc2c(C(=O)OCC)cnn2c1CCC`: the values for the MIC in the experiment on Candida albicans and in the experiment on Escherichia coli were 400 µM (≈ 122 µg/mL) and over 400 µM, respectively.
On to `CCCC(=O)c1nnc2c(C(N)=O)cnn2c1CCC`, for which the MIC (in the experiment with Candida albicans; in experiment [1]; in the experiment with Escherichia coli; with Staphylococcus aureus; with Pseudomonas aeruginosa) was over 400 µM each time.
For the molecule `CCC(=O)c1nnc2c(C(N)=O)cnn2c1CC`, the minimum inhibitory concentration (MIC) (with Candida albicans; in experiment [1]; with Escherichia coli; in the experiment on Staphylococcus aureus; in the experiment on Pseudomonas aeruginosa) was over 400 µM each time.
As to `CCC(=O)c1nnc2ccnn2c1CC`, the MIC (in the experiment on Candida albicans; in experiment [1]; in the experiment with Escherichia coli; in the experiment on Staphylococcus aureus; in the experiment with Pseudomonas aeruginosa) was over 400 µM in each case.
As for `CCC(=O)c1nnc2c(Br)cnn2c1CC`, the MIC in experiment [1] was 160 µM (≈ 45.3 µg/mL); in the experiment on Escherichia coli, over 400 µM.
In the case of `CCC(=O)c1nnc2cc(-c3ccc(OC)cc3)nn2c1CC`, the MIC (with Candida albicans; in experiment [1]; with Escherichia coli; in the experiment with Staphylococcus aureus; in the experiment with Pseudomonas aeruginosa) was over 400 µM each time.
Take `N#Cc1nnc2ccnn2c1N`: the MIC (in the experiment on Candida albicans; in experiment [1]; in the experiment on Escherichia coli; in the experiment with Staphylococcus aureus; in the experiment on Pseudomonas aeruginosa) was over 400 µM in each case.
For the molecule `CCCc1c(C(=O)OCC)nnc2ccnn12`, the MIC (in the experiment with Candida albicans; in experiment [1]; in the experiment on Escherichia coli; with Staphylococcus aureus; in the experiment with Pseudomonas aeruginosa) was over 400 µM in each case.
On to `CCCc1cnnc2ccnn12`, for which the MIC (with Candida albicans; in experiment [1]; in the experiment with Escherichia coli; with Staphylococcus aureus; with Pseudomonas aeruginosa) was over 400 µM each time.
Take `Cc1nnc2ccnn2c1C`: the MIC (with Candida albicans; in experiment [1]; with Escherichia coli; with Staphylococcus aureus; in the experiment on Pseudomonas aeruginosa) was over 400 µM each time.
Consider `CCCc1cnnc2c(Br)cnn12`, for which the MIC (in the experiment with Candida albicans; in experiment [1]; with Escherichia coli; in the experiment on Staphylococcus aureus; in the experiment on Pseudomonas aeruginosa) was over 400 µM throughout.
In the case of `Cc1cnnc2ccnn12`, the MIC (with Candida albicans; in experiment [1]; in the experiment with Escherichia coli; in the experiment on Staphylococcus aureus; in the experiment with Pseudomonas aeruginosa) was over 400 µM each time.
Turning to `Cc1cnnc2c(Br)cnn12`, the MIC (in the experiment with Candida albicans; in experiment [1]; in the experiment with Escherichia coli; with Staphylococcus aureus; with Pseudomonas aeruginosa) was over 400 µM in each case.
Regarding `Cc1nnc2c(Br)cnn2c1C`, the minimal inhibitory concentration (MIC) (in the experiment on Candida albicans; in experiment [1]; in the experiment with Escherichia coli; in the experiment on Staphylococcus aureus; with Pseudomonas aeruginosa) was over 400 µM in each case.
Take `CCCC(=O)c1nnc2nc(SCc3ccccc3)nn2c1CCC`: the MIC was over 400 µM with Escherichia coli and 400 µM (≈ 142 µg/mL) with Staphylococcus aureus.
With `CCCC(=O)c1nnc2nc(S(=O)(=O)Cc3ccccc3)nn2c1CCC`, the MIC (in the experiment on Candida albicans; in experiment [1]; in the experiment on Escherichia coli; in the experiment on Staphylococcus aureus; with Pseudomonas aeruginosa) was over 400 µM each time.
For the molecule `CCCC(=O)c1nnc2ncnn2c1CCC`, the MIC (in the experiment with Candida albicans; in experiment [1]; in the experiment on Escherichia coli; in the experiment on Staphylococcus aureus; in the experiment with Pseudomonas aeruginosa) was over 400 µM throughout.
As to `CCCC(=O)c1nnc2nc(NC)nn2c1CCC`, the MIC (with Candida albicans; in experiment [1]; in the experiment with Escherichia coli; in the experiment on Staphylococcus aureus; in the experiment on Pseudomonas aeruginosa) was over 400 µM each time.
`CCOC(=O)c1nnc2nccn2c1N`: the MIC (with Candida albicans; in experiment [1]; with Escherichia coli; in the experiment with Staphylococcus aureus; in the experiment on Pseudomonas aeruginosa) was over 400 µM each time.
Take `CCCC(=O)c1nnc2nccn2c1CCC`: the MIC (in the experiment with Candida albicans; in experiment [1]; with Escherichia coli; in the experiment on Staphylococcus aureus; with Pseudomonas aeruginosa) was over 400 µM each time.
As to `CCC(=O)c1nnc2nccn2c1CC`, the minimal inhibitory concentration (MIC) (with Candida albicans; in experiment [1]; in the experiment on Escherichia coli; with Staphylococcus aureus; in the experiment on Pseudomonas aeruginosa) was over 400 µM throughout.
For `Cc1nnc2nccn2c1C`, the MIC (in the experiment with Candida albicans; in experiment [1]; in the experiment on Escherichia coli; in the experiment with Staphylococcus aureus; with Pseudomonas aeruginosa) was over 400 µM in each case.
As to `CCCC(=O)c1nnc2c(C(N)=O)ncn2c1CCC`, the MIC (in the experiment on Candida albicans; in experiment [1]; in the experiment on Escherichia coli; in the experiment on Staphylococcus aureus; with Pseudomonas aeruginosa) was over 400 µM throughout.
With `CCC(=O)c1nnc2c(C(N)=O)ncn2c1CC`, the minimal inhibitory concentration (MIC) (in the experiment on Candida albicans; in experiment [1]; with Escherichia coli; in the experiment with Staphylococcus aureus; in the experiment with Pseudomonas aeruginosa) was over 400 µM throughout.
On to `CC(=O)c1nnc2c(C(N)=O)ncn2c1C`, for which the MIC (in the experiment with Candida albicans; in experiment [1]; in the experiment with Escherichia coli; with Staphylococcus aureus; in the experiment with Pseudomonas aeruginosa) was over 400 µM each time.

For orientation: MIC means the lowest concentration that inhibits growth of the organism.
